Assay results reported in US20080227134A9, “Glyoxylate assays and their use of inden tifying natural amidated compounds” (priority 2005, published 2008).

Columns and labels:
Glyoxal oxidase [1] = target: T1, Glyoxal oxidase (Phanerodontia chrysosporium, UniProt Q01772); details: cited from earlier work
T1 sequence (Q01772 23-559): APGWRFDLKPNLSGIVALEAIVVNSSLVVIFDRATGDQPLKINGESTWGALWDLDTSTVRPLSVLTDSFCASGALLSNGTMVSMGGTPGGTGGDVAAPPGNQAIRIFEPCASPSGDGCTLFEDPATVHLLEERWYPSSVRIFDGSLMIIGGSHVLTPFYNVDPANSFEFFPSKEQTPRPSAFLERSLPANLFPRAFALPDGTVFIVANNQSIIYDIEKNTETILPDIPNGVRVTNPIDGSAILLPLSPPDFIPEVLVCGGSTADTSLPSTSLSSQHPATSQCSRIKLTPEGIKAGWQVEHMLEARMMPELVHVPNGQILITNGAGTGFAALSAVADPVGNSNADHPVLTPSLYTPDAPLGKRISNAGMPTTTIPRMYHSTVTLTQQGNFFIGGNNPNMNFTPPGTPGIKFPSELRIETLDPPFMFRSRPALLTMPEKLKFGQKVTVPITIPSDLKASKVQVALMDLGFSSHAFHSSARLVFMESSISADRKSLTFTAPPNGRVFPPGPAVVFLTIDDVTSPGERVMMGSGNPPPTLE

[2] = target: T2, peptidylglycine α-amidating monooxygenase (Rattus norvegicus, UniProt P14925); test: PAM treatment of hippurate: benzamide by HPLC, glyoxylate by malate synthase/malate dehydrogenase/MTS/PMS system; assay type: biochemical; details: for Benzamide Produced / Glyoxylate Produced: PAM added to 2.5 mM hippurate
T2 sequence (P14925 36-976): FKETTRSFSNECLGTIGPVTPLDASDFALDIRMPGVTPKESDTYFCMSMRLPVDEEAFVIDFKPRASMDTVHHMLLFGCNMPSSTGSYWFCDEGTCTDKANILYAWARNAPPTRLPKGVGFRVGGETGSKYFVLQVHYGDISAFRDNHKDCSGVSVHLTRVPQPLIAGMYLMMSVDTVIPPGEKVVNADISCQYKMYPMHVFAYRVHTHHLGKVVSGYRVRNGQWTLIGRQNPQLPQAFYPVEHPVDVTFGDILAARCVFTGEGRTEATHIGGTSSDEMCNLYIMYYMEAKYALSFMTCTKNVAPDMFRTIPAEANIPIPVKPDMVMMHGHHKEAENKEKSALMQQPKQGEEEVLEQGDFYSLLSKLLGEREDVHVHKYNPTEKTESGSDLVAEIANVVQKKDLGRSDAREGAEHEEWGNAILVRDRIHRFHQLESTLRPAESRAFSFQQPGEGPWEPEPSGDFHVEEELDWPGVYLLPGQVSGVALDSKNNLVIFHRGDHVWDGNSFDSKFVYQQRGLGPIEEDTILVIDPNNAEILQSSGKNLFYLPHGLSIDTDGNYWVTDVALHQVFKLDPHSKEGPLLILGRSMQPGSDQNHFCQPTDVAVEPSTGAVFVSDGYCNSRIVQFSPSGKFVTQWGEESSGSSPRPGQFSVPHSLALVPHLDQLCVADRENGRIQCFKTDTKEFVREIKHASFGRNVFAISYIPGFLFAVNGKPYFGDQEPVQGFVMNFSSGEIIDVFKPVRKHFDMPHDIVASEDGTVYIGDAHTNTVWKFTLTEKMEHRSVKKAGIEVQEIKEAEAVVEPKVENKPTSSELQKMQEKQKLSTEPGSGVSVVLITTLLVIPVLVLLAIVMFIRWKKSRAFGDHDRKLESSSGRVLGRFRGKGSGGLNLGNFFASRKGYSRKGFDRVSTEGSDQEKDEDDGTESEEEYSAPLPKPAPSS
Experimental: Hippurate (N-benzoylglycine, C6H5-CO—NH—CH2-COO^−) is a PAM substrate that is oxidatively converted to benzamide and glyoxylate. […] At 10 min intervals over a period of 110 minutes, 45 μl aliquots may be removed and added to 10 μl of 6% (v/v) trifluoroacetic acid to terminate the reaction. Percent conversion of hippurate to benzamide may be determined at each time interval by reverse-phase HPLC.
Approximately 20 nanomoles of glyoxylate may be removed from the HPLC vials and added to a 0.9 ml solution that contain necessary components for the glyoxylate assay excluding the enzyme couple and MTS/PMS. Ascorbate may be eliminated from all samples, prior to glyoxylate determination, with 10 min incubation in the presence of 12 units of ascorbate oxidase at 37° C. Following ascorbate removal the addition of 100 μl enzyme couple and PMS/MTS may bring the assay to a final volume of 1 ml which contains 100 mM TEA-HC1 pH 7.8, 10 MM MgCl2, 400 μM acetyl-CoA, 500 μM NAD^+, 6 U/ml malate synthase, 6 U/ml malate dehydrogenase, and 12 units ascorbate oxidase. The glyoxylate concentration may be determined by measuring the absorbance increase at 490 nm after incubation at 37° C. for 1 hr. A control for this experiment was performed at each time point, and contained no hippurate.

PAM = target: T3, PAM (Rattus norvegicus, UniProt P14925); test: PAM dependent conversion of N-dansyl-Tyr-Val-Gly verified by RP-HPLC; assay type: biochemical; details: 20 μM substrate, PAM 15 U/L, 1.0 mM catechol, one hour at 37° C.
T3 construct: Unigene Labs, Inc. (Fairfield, N.J.), gift
T3 sequence (P14925 36-715 isoform P14925-2 limits assumed): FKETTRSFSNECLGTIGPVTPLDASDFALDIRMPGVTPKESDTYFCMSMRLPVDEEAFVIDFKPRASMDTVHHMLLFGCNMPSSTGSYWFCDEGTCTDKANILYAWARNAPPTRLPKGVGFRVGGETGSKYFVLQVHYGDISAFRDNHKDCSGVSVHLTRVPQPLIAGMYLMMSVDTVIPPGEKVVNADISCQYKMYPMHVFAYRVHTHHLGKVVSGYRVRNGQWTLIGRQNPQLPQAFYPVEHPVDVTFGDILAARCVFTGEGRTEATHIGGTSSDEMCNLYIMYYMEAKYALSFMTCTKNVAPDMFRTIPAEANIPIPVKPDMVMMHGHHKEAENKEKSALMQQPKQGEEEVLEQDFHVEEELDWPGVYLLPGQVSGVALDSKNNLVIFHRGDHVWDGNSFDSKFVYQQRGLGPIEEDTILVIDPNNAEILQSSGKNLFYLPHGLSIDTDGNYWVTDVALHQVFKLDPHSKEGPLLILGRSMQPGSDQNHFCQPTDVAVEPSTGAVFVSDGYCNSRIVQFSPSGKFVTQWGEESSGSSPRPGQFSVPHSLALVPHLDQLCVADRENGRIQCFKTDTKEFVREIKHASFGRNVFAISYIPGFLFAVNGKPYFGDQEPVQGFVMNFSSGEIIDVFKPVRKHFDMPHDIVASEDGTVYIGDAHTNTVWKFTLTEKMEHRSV
Experimental: Glyoxylate production was initiated by the addition of PAM (15 U/L) to a solution containing 40 mM MES/NaOH pH 6.0, 10 U/ml HRP, 1.0 mM catechol, 0.5 μM CU(SO4), 20 μM dansyl-Tyr-Val-Gly, the reaction proceeded for one hour at 37° C. […] The complete PAM dependent conversion of 20 μM N-dansyl-Tyr-Val-Gly to N-dansyl-Tyr-Val-NH2 and glyoxylate was verified by RP-HPLC to quantify the exact concentrations of [dansyl-Tyr-Val-NH2] and [glyoxylate] (100% conversion, 20 μM N-dansyl-Tyr-Val-NH2 and glyoxylate). Aliquots of the PAM produced glyoxylate pertaining to variable concentrations (0.3, 0.7, 1.6, and 2.3, μM) of were utilized for analysis by the GLOX assay. Aliquots of glyoxylate were added to a solution of 50 mM sodium phosphate pH 6.0, 50 μM Amplex red, at HRP (1 U/ml) and a final concentration of 0.4 mg/ml GLOX. All samples were incubated for 1 hour at 37° C. for one hour.
Glyoxylate production was initiated by the addition of PAM (15 U/L) to a solution containing 40 mM MES/NaOH pH 6.0, 10 U/ml HRP, 1.0 mM catechol, 0.5 μM Cu(SO4), 20 μM dansyl-Tyr-Val-Gly, the reaction proceeded for one hour at 37° C. The PAM dependent conversion of 20 μM N-dansyl-Tyr-Val-Gly to N-dansyl-Tyr-Val-NH2 and glyoxylate was verified to be 100% by a RP-HPLC assay, to ensure a 20 μM PAM produced glyoxylate solution. […]

Glyoxal oxidase [3] = target: T1, Glyoxal oxidase; test: Effect of PAM reductant on glyoxal oxidase activity and glyoxylate assays; assay type: biochemical; design: Dr. James Whittaker, OGI School of Science and Engineering (gift); details: reductant for PAM catalysis
Text: Application of the assays of the invention to the quantification of PAM-produced glyoxylate required two alterations of the PAM assay, as well as one change to the common glycolate oxidase assay which has previously been mentioned. Without these specific alterations the assays would be rendered non-stoichiometric and produce anomalous data. First, to address the changes to the PAM assay, a new method for enzyme protection due to hydroxyl radical formation produced during catalysis was necessary as the use of catalase has previously been the method of choice. Catalase catalyzes the disproportionate reaction of H2O2 to H2O and O2, and removal of hydrogen peroxide is detrimental to the assay methods. […] Second, a reducing agent is necessary for the PAM catalysis. Ascorbate is frequently used in the art for this purpose. […] As an alternative to the foregoing, ascorbate may be used in the PAM-catalyzed reaction, but later removed (e.g., by deactivating with ascorbate oxidase) prior to assaying for glyoxylate.

CC(=O)C=O [Methylglyoxal]
Km (Glyoxal oxidase [1]): 640 µM

O=CC(=O)O [glyoxylic acid]
Km (Glyoxal oxidase [1]): 2500 µM
kcat/KM ratio, activity compared to methylglyoxal (Glyoxal oxidase [1]): 12.4%

O=C(O)CNC(=O)c1ccccc1 [hippurate, N-benzoylglycine]
[Glyoxylate]/[Benzamide] ([2]; Time 40): 1.2
Benzamide Produced ([2]; Time 40): 0.58 mM
Glyoxylate Produced ([2]; Time 40): 0.69 mM
[Glyoxylate]/[Benzamide] ([2]; Time 50): 0.96
Benzamide Produced ([2]; Time 50): 0.70 mM
Glyoxylate Produced ([2]; Time 50): 0.67 mM
[Glyoxylate]/[Benzamide] ([2]; Time 60): 0.89
Benzamide Produced ([2]; Time 60): 0.80 mM
Glyoxylate Produced ([2]; Time 60): 0.71 mM
[Glyoxylate]/[Benzamide] ([2]; Time 70): 0.83
Benzamide Produced ([2]; Time 70): 0.90 mM
Glyoxylate Produced ([2]; Time 70): 0.75 mM
[Glyoxylate]/[Benzamide] ([2]; Time 80): 0.79
Benzamide Produced ([2]; Time 80): 0.98 mM
Glyoxylate Produced ([2]; Time 80): 0.77 mM
[Glyoxylate]/[Benzamide] ([2]; Time 90): 1.2
Benzamide Produced ([2]; Time 90): 1.1 mM
Glyoxylate Produced ([2]; Time 90): 1.3 mM
[Glyoxylate]/[Benzamide] ([2]; Time 100): 1.1
Benzamide Produced ([2]; Time 100): 1.2 mM
Glyoxylate Produced ([2]; Time 100): 1.3 mM
[Glyoxylate]/[Benzamide] ([2]; Time 110): 1.0
Benzamide Produced ([2]; Time 110): 1.3 mM
Glyoxylate Produced ([2]; Time 110): 1.3 mM

N-dansyl-Tyr-Val-Gly
PAM dependent conversion to N-dansyl-Tyr-Val-NH2 and glyoxylate (PAM): 100%

Oc1ccccc1O [catechol]
inhibition of the enzyme activity of glyoxal oxidase and of the spectrophotometric, fluorescent and luminescent assays (Glyoxal oxidase [3]): not an inhibitor
